Data published in ChEMBL document CHEMBL1159340, “Antibacterial diterpenes from Calceolaria pinifolia” (J Nat Prod, 2003).
Converted amounts (≈) assume the structure as drawn.

How the values were obtained:
[1] = system: Bacillus subtilis; assay: Antimicrobial activity against Bacillus subtilis 327 after 18 hrs by microbroth dilution method; format: functional
[2] = system: Staphylococcus aureus; assay: Antimicrobial activity against methicillin-susceptible Staphylococcus aureus 375 after 18 hrs by microbroth dilution method; format: functional
[3] = system: Staphylococcus aureus; assay: Antimicrobial activity against methicillin-resistant Staphylococcus aureus 310 after 18 hrs by microbroth dilution method; format: functional
[4] = system: Escherichia coli; assay: Antimicrobial activity against Escherichia coli imp 389 after 18 hrs by microbroth dilution method; format: functional
[5] = Toxicity in human RBC assessed as hemolysis at 16 ug/ml after 2 hrs; format: cell-based, Erythrocyte; conditions: red blood cells (RBC), read-out: Activity
[6] = Toxicity in human RBC assessed as hemolysis at 8 ug/ml after 2 hrs; format: cell-based, Erythrocyte; conditions: red blood cells (RBC), read-out: Activity
[7] = Toxicity in human RBC assessed as hemolysis at 4 ug/ml after 2 hrs; format: cell-based, Erythrocyte; conditions: red blood cells (RBC), read-out: Activity
[8] = Toxicity in human RBC assessed as hemolysis at 2 ug/ml after 2 hrs; format: cell-based, Erythrocyte; conditions: red blood cells (RBC), read-out: Activity
[9] = Toxicity in human RBC assessed as hemolysis at 1 ug/ml after 2 hrs; format: cell-based, Erythrocyte; conditions: red blood cells (RBC), read-out: Activity
[10] = Toxicity in human RBC assessed as hemolysis at 0.5 ug/ml after 2 hrs; format: cell-based, Erythrocyte; conditions: red blood cells (RBC), read-out: Activity
[11] = system: Bacillus subtilis; assay: Inhibition of DNA synthesis in Bacillus subtilis assessed as [3H]thymidine uptake at 0.25 ug/mL by LKB Betaplate scintillation counter relative to control; format: functional; parameters: scale not given: the % may be the effect or the level left
[12] = system: Bacillus subtilis; assay: Inhibition of DNA synthesis in Bacillus subtilis assessed as incorporation of [3H]thymidine at 0.25 ug/mL by LKB Betaplate scintillation counter relative to control; format: functional; parameters: scale not given: the % may be the effect or the level left
[13] = system: Bacillus subtilis; assay: Inhibition of RNA synthesis in Bacillus subtilis assessed as [3H]uridine uptake at 0.25 ug/mL by LKB Betaplate scintillation counter relative to control; format: functional; parameters: scale not given: the % may be the effect or the level left
[14] = system: Bacillus subtilis; assay: Inhibition of RNA synthesis in Bacillus subtilis assessed as incorporation of [3H]uridine at 0.25 ug/mL by LKB Betaplate scintillation counter relative to control; format: functional; parameters: scale not given: the % may be the effect or the level left
[15] = system: Bacillus subtilis; assay: Inhibition of protein synthesis in Bacillus subtilis assessed as [3H]amino acid uptake at 0.25 ug/mL by LKB Betaplate scintillation counter relative to control; format: functional; parameters: scale not given: the % may be the effect or the level left
[16] = system: Bacillus subtilis; assay: Inhibition of protein synthesis in Bacillus subtilis assessed as incorporation of [3H]amino acid at 0.25 ug/mL by LKB Betaplate scintillation counter relative to control; format: functional; parameters: scale not given: the % may be the effect or the level left
[17] = system: Staphylococcus aureus; assay: Antimicrobial activity against Staphylococcus aureus infected in CD1 mouse administered subcutaneously after 30 mins infection measured after 7 days; format: functional; conditions: sc
[18] = Ratio of LD50 for CD1 mouse to ED50 for Staphylococcus aureus

## CC1(C)S[C@@H]2[C@H](NC(=O)Cc3ccccc3)C(=O)N2[C@H]1C(=O)O [PENICILLIN G]
[1]
  MIC: 0.03 µg/mL (≈ 0.0897 µM)
[2]
  MIC: 0.03 µg/mL (≈ 0.0897 µM)
[3]
  MIC: 128 µg/mL (≈ 383 µM)
[4]
  MIC: 1 µg/mL (≈ 2.99 µM)

## C[C@H]1[C@H](C)CC[C@]2(C(=O)O)CC[C@]3(C)C(=CC[C@@H]4[C@@]5(C)CC[C@@H](O)C(C)(C)[C@@H]5CC[C@]43C)[C@H]12
[1]
  MIC: 64 µg/mL (≈ 140 µM)
[2]
  MIC: > 128 µg/mL
[4]
  MIC: > 128 µg/mL

## C[C@@H]1[C@H](O)[C@@H](C)/C=C/C=C/C=C/C=C/C=C/C=C/C=C/[C@H](O[C@@H]2O[C@H](C)[C@@H](O)[C@H](N)[C@@H]2O)C[C@@H]2O[C@](O)(C[C@@H](O)C[C@@H](O)[C@H](O)CC[C@@H](O)C[C@@H](O)CC(=O)O[C@H]1C)C[C@H](O)[C@H]2C(=O)O [AMPHOTERICIN B]
[5]
  hemolysis at 2 h, 16 ug/ml: 118%
[6]
  hemolysis at 2 h, 8 ug/ml: 96.9%
[7]
  hemolysis at 2 h, 4 ug/ml: 74.6%
[8]
  hemolysis at 2 h, 2 ug/ml: 27.5%
[9]
  hemolysis at 2 h, 1 ug/ml: 9.7%
[10]
  hemolysis at 2 h, 0.5 ug/ml: 0%

## CC(C)c1ccc2c(c1)CC[C@H]1[C@](C)(C(=O)O)CCC[C@]21C [DEHYDROABIETIC ACID]
[1]
  MIC: 32 µg/mL (≈ 107 µM)
[2]
  MIC: 16 µg/mL (≈ 53.3 µM)
[3]
  MIC: 32 µg/mL (≈ 107 µM)
[4]
  MIC: 128 µg/mL (≈ 426 µM)

## O=C(O)c1cn(C2CC2)c2cc(N3CCNCC3)c(F)cc2c1=O [CIPROFLOXACIN]
[11]
  Activity: 73%
[12]
  Activity: 61%
[13]
  Activity: 100%
[14]
  Activity: 94%
[15]
  Activity: 104%
[16]
  Activity: 94%

## CN[C@H](CC(C)C)C(=O)N[C@H]1C(=O)N[C@@H](CC(N)=O)C(=O)N[C@H]2C(=O)N[C@H]3C(=O)N[C@H](C(=O)N[C@H](C(=O)O)c4cc(O)cc(O)c4-c4cc3ccc4O)[C@H](O)c3ccc(c(Cl)c3)Oc3cc2cc(c3O[C@@H]2O[C@H](CO)[C@@H](O)[C@H](O)[C@H]2O[C@H]2C[C@](C)(N)[C@H](O)[C@H](C)O2)Oc2ccc(cc2Cl)[C@H]1O [VANCOMYCIN]
[17]
  ED50: 1 mg/kg
[18]
  Ratio LD50/ED50: > 1024
